Tests used:
[1] = Inhibition of rat DNA polymerase in presence of bovine serum albumin
Mus musculus = assay: Antiinflammatory activity against croton oil-induced ear edema in mouse; assay type: functional
[2] = Inhibition of rat DNA polymerase in absence of bovine serum albumin

| IC50 [1] | IC50 [2] | SMILES | ID50 (Mus musculus) |
| --- | --- | --- | --- |
| 8.5 µM | 4.8 µM | C[C@H]1[C@H](C)CC[C@]2(C(=O)O)CC[C@]3(C)C(=CC[C@@H]4[C@@]5(C)CC[C@H](O)C(C)(C)[C@@H]5CC[C@]43C)[C@H]12 [URSOLIC ACID] | 0.14 µmol |
| – | – | COc1ccc2c(c1)c(CC(=O)O)c(C)n2C(=O)c1ccc(Cl)cc1 [INDOMETHACIN] | 0.26 µmol |
| 7.5 µM | 3.7 µM | CC1(C)CC[C@]2(C(=O)O)CC[C@]3(C)C(=CC[C@@H]4[C@@]5(C)CC[C@H](O)C(C)(C)[C@@H]5CC[C@]43C)[C@@H]2C1 [OLEANOLIC_ACID] | – |
